Assay results taken from ChEMBL document CHEMBL1201862, “PubChem BioAssay data set” (2004).
Counter-ions that a name gives are not always drawn.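 Dose response: 5 concentrations. Exposure: 48 h. Format: 96-well plates. Endpoint: linear interpolation; highest concentration if not reached. GI50 = concentration required for 50% inhibition of growth.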 Active and inactive are the calls of the source. Cut-off read from the data, not from the text of the source: active = GI50 up to about 1.1 µM and inactive = higher. Residues, ends and D or L forms follow the SMILES beside them. *: point of attachment. Tfa = O=C(C(F)(F)F)*

How the values were obtained:
Assay in all cases: DTP human tumour cell line panel, 48 h
U-251 = tested on: U-251
NCI-H460 = tested on: NCI-H460
BT-549 = tested on: BT-549
NCI-H23 = tested on: NCI-H23
A549 = tested on: A549
T47D = tested on: T47D
NCI/ADR-RES = tested on: NCI/ADR-RES
EKVX = tested on: EKVX
HT-29 = tested on: HT-29
MCF7 = tested on: MCF7
SK-MEL-5 = tested on: SK-MEL-5
M14 = tested on: M14
SN12C = tested on: SN12C
COLO 205 = tested on: COLO 205
MOLT-4 = tested on: MOLT-4
786-0 = tested on: 786-0
NCI-H522 = tested on: NCI-H522
SF-268 = tested on: SF-268
HL-60 = tested on: HL-60

Row | SMILES | GI50 (U-251) | GI50 (NCI-H460) | GI50 (BT-549) | GI50 (NCI-H23) | GI50 (A549) | GI50 (T47D) | GI50 (NCI/ADR-RES) | GI50 (EKVX) | GI50 (HT-29) | GI50 (MCF7) | GI50 (SK-MEL-5) | GI50 (M14) | GI50 (SN12C) | GI50 (COLO 205) | GI50 (MOLT-4) | GI50 (786-0) | GI50 (NCI-H522) | GI50 (SF-268) | GI50 (HL-60)
1 | O=C(O)CC(NC(=O)C(F)(F)F)C(=O)NC(Cc1ccc(O)cc1)C(=O)O (stereo not drawn) (Tfa-Asp-Tyr-OH; configuration not given here) | > 50 µM (inactive) | > 50 µM (inactive) | > 50 µM (inactive) | > 50 µM (inactive) | > 50 µM (inactive) | > 50 µM (inactive) | > 50 µM (inactive) | > 50 µM (inactive) | > 50 µM (inactive) | > 50 µM (inactive) | > 50 µM (inactive) | > 50 µM (inactive) | > 50 µM (inactive) | > 50 µM (inactive) | > 50 µM (inactive) | > 50 µM (inactive) | > 50 µM (inactive) | > 50 µM (inactive) | 
2 | CCCCCCN(C(=O)Oc1ccccc1)C(C#N)c1ccccc1 (centres undefined) | > 100 µM (inactive) |  | > 100 µM (inactive) | > 100 µM (inactive) | > 100 µM (inactive) | > 100 µM (inactive) | > 100 µM (inactive) | > 100 µM (inactive) | > 100 µM (inactive) | > 100 µM (inactive) | > 100 µM (inactive) | > 100 µM (inactive) | > 100 µM (inactive) | > 100 µM (inactive) | > 100 µM (inactive) | > 100 µM (inactive) | > 100 µM (inactive) | > 100 µM (inactive) | > 100 µM (inactive)
3 | Cc1cccc2c(N)c3cccc(C(=O)NCC[N+](C)(C)[O-])c3nc12 | 4 µM (inactive) | 0.538 µM (active) | 15.2 µM (inactive) | 3.76 µM (inactive) | 1.24 µM (inactive) | 13.8 µM (inactive) | 6.21 µM (inactive) | 15.6 µM (inactive) | 6.01 µM (inactive) | 2.1 µM (inactive) | 22.8 µM (inactive) | 19.2 µM (inactive) | 3.64 µM (inactive) | 9.57 µM (inactive) | 0.542 µM (active) | 2.46 µM (inactive) |  | 1.96 µM (inactive) | 4.05 µM (inactive)
4 | CC(C)c1ccc2c(c1)/C(=C1/Nc3ccccc3/C1=N/O)C(=O)N2 | 7.23 µM (inactive) | 4 µM (inactive) | 7.13 µM (inactive) | 3.93 µM (inactive) | 6.28 µM (inactive) | 3.88 µM (inactive) | 4.38 µM (inactive) | 4.51 µM (inactive) | 4.69 µM (inactive) | 1.69 µM (inactive) | 3.82 µM (inactive) | 11.5 µM (inactive) | 5.22 µM (inactive) | 5.22 µM (inactive) | 3.3 µM (inactive) | 4.85 µM (inactive) | 4.06 µM (inactive) | 7 µM (inactive) | 
5 | CC(=O)Oc1cc2c(cc1OC(C)=O)[C@H]1CC[C@]3(C)[C@@H](OC(C)=O)CC[C@H]3[C@@H]1CC2 | 4.95 µM (inactive) | 8.57 µM (inactive) | 1.99 µM (inactive) | 10.2 µM (inactive) | 7.96 µM (inactive) | 7.26 µM (inactive) | 9.53 µM (inactive) | 2.56 µM (inactive) | 5.14 µM (inactive) | 6.37 µM (inactive) | 5.62 µM (inactive) | 6 µM (inactive) |  | 3.43 µM (inactive) |  | 4.78 µM (inactive) | 1.16 µM (inactive) | 4.66 µM (inactive) | 
6 | CC(C)[C@@H]1NC(=O)[C@H]2N=C(O[C@@H]2C)[C@@H]2CCCN2C(=O)[C@H](Cc2ccccc2)NC(=O)[C@@H]2CSC(=N2)[C@@H](Cc2ccccc2)NC(=O)[C@@H]2CSC1=N2 | > 50 µM (inactive) |  | > 50 µM (inactive) | > 50 µM (inactive) | 18.7 µM (inactive) | > 50 µM (inactive) | > 50 µM (inactive) | > 50 µM (inactive) | 38.8 µM (inactive) | 18.9 µM (inactive) | > 50 µM (inactive) | > 50 µM (inactive) | > 50 µM (inactive) | 24.7 µM (inactive) | 26.8 µM (inactive) | > 50 µM (inactive) | 29.1 µM (inactive) | > 50 µM (inactive) | 7.46 µM (inactive)
7 | O=C(c1ccc(O)c([N+](=O)[O-])c1)c1ccc(O)c([N+](=O)[O-])c1 | > 100 µM (inactive) | > 100 µM (inactive) | 33 µM (inactive) | > 100 µM (inactive) | 89.9 µM (inactive) | > 100 µM (inactive) | 43.6 µM (inactive) | > 100 µM (inactive) | > 100 µM (inactive) | 93.1 µM (inactive) | > 100 µM (inactive) | > 100 µM (inactive) | > 100 µM (inactive) | > 100 µM (inactive) |  | > 100 µM (inactive) | > 100 µM (inactive) | > 100 µM (inactive) | 
8 | CC1(c2cccc(C(F)(F)F)c2)CC(c2cccc(C(F)(F)F)c2)=C(C#N)C(=C(C#N)C#N)N1 (centres undefined) | 18.4 µM (inactive) | 19.3 µM (inactive) | 18.7 µM (inactive) | 19.3 µM (inactive) | 19.5 µM (inactive) | 17 µM (inactive) | 19.5 µM (inactive) | 17.9 µM (inactive) | 18.8 µM (inactive) | 16.7 µM (inactive) | 15.2 µM (inactive) | 20.2 µM (inactive) | 18.1 µM (inactive) | 14.6 µM (inactive) | 19.2 µM (inactive) | 17 µM (inactive) |  | 15 µM (inactive) | 15.5 µM (inactive)
9 | COc1ccc(CC2Cc3ccccc3CC(=O)N2)cc1OC (centres undefined) | > 100 µM (inactive) | 42.8 µM (inactive) | 37.4 µM (inactive) | 87.7 µM (inactive) | > 100 µM (inactive) | 17.3 µM (inactive) | 27.5 µM (inactive) | 89.7 µM (inactive) | > 100 µM (inactive) | 52 µM (inactive) | 14.3 µM (inactive) | 54 µM (inactive) | > 100 µM (inactive) | > 100 µM (inactive) | 24.6 µM (inactive) | > 100 µM (inactive) |  |  | 21.4 µM (inactive)
10 | CCOC(=O)C(O)Cc1cnc2ccccc2n1 (centres undefined) | > 100 µM (inactive) | 92.3 µM (inactive) | > 100 µM (inactive) | > 100 µM (inactive) | > 100 µM (inactive) | > 100 µM (inactive) | > 100 µM (inactive) | 73.5 µM (inactive) | > 100 µM (inactive) | 80.7 µM (inactive) | > 100 µM (inactive) | > 100 µM (inactive) | > 100 µM (inactive) | > 100 µM (inactive) | > 100 µM (inactive) | > 100 µM (inactive) | 79.3 µM (inactive) | > 100 µM (inactive) | 
11 | ON[C@@H]1C=C[C@H](n2cnc3c(NC4CC4)ncnc32)C1 | > 100 µM (inactive) | > 100 µM (inactive) | > 100 µM (inactive) | > 100 µM (inactive) | > 100 µM (inactive) | > 100 µM (inactive) | > 100 µM (inactive) | > 100 µM (inactive) | > 100 µM (inactive) | > 100 µM (inactive) | > 100 µM (inactive) | > 100 µM (inactive) | > 100 µM (inactive) | > 100 µM (inactive) | > 100 µM (inactive) | > 100 µM (inactive) | > 100 µM (inactive) | > 100 µM (inactive) | 
12 | COC(=O)C(=O)C(C(=O)C(=O)Nc1ccccc1C(=O)OC)c1nc2ccc(C(=O)c3ccccc3)cc2nc1O (centres undefined) | > 100 µM (inactive) | 51.3 µM (inactive) | > 100 µM (inactive) | 64.3 µM (inactive) | > 100 µM (inactive) | 38.3 µM (inactive) | 18.8 µM (inactive) | 80.4 µM (inactive) | 41.1 µM (inactive) | 66.5 µM (inactive) | 53.7 µM (inactive) | > 100 µM (inactive) | 64.7 µM (inactive) |  |  | > 100 µM (inactive) | 24.1 µM (inactive) | 56.9 µM (inactive) | 41 µM (inactive)
13 | OB1OCc2ccccc21 [BENZOXABOROLE] | 62.7 µM (inactive) | 34.7 µM (inactive) | > 100 µM (inactive) | 36.7 µM (inactive) | 33.8 µM (inactive) | > 100 µM (inactive) | 22.3 µM (inactive) |  | 26.7 µM (inactive) | 24.9 µM (inactive) | 46.9 µM (inactive) | 55.3 µM (inactive) | 39.7 µM (inactive) | 33.7 µM (inactive) | 69.8 µM (inactive) | 39.7 µM (inactive) |  | 42.2 µM (inactive) | > 100 µM (inactive)
14 | O=C(CC(C(=O)c1ccco1)c1cccs1)c1cccs1 (centres undefined) | 67.5 µM (inactive) | 80.5 µM (inactive) | 46.5 µM (inactive) | 58.5 µM (inactive) | 41.7 µM (inactive) | 28.2 µM (inactive) | 36.1 µM (inactive) | 24.9 µM (inactive) | 37.9 µM (inactive) | 46.8 µM (inactive) | 32.4 µM (inactive) | 46.6 µM (inactive) | 66.8 µM (inactive) | 51.9 µM (inactive) |  | > 100 µM (inactive) | 41.9 µM (inactive) | 57.9 µM (inactive) | 27.2 µM (inactive)
15 | COc1cc2c(cc1OC)C1=Cc3cc(OC)c(OC)cc3C(C)N1C=C2 (centres undefined) | 37.2 µM (inactive) | 47.1 µM (inactive) | 34.6 µM (inactive) | > 100 µM (inactive) | > 100 µM (inactive) | 29.3 µM (inactive) | > 100 µM (inactive) | > 100 µM (inactive) | 74.3 µM (inactive) | 21 µM (inactive) | 38.4 µM (inactive) | > 100 µM (inactive) | 87.5 µM (inactive) | 22 µM (inactive) | 35.2 µM (inactive) | > 100 µM (inactive) |  | 21.5 µM (inactive) | > 100 µM (inactive)
